In brackets after ≈: the same amount, converted by molar mass. Where two headings read alike, the source gives them in different places.
Legend:
Format in all cases: cell-based
[1] = tested on: Mycobacterium avium; experiment: MIC by micro broth dilution method (resazurin microtiter assay); conditions: read-out: Minimum Inhibitory Concentration (MIC)
[2] = tested on: Mycobacterium abscessus; experiment: as above; conditions: Mycobacteroides abscessus, read-out: Minimum Inhibitory Concentration (MIC)
[3] = tested on: Mycobacterium kansasii; experiment: as above; conditions: Mycobacterium kansasii, Mycobacterium kansasii, read-out: Minimum Inhibitory Concentration (MIC)
[4] = tested on: Mycobacterium avium; experiment: MBC test (plating on agar, CFU count); conditions: Mycobacterium avium, read-out: Minimum Bactericidal Concentration (MBC)
[5] = tested on: Mycobacterium abscessus; experiment: MBC test (plating on agar, CFU count); conditions: for Minimum Bactericidal Concentration (MBC): MH Culture Medium; for MBC: Mycobacteroides abscessus, 7H9 Culture Medium, read-out: Minimum Bactericidal Concentration (MBC)
[6] = tested on: Mycobacterium kansasii; experiment: MBC test (plating on agar, CFU count); conditions: Mycobacterium kansasii, Mycobacterium kansasii, read-out: Minimum Bactericidal Concentration (MBC)
[7] = tested on: Mycobacterium intracellulare; experiment: MIC by micro broth dilution method (resazurin microtiter assay); conditions: Mycobacterium intracellulare, MH Culture Medium, read-out: Minimum Inhibitory Concentration (MIC)
[8] = tested on: Mycobacterium massiliense; experiment: as above; conditions: for MIC: Mycobacteroides abscessus, read-out: Minimum Inhibitory Concentration (MIC)
[9] = tested on: Mycobacterium fortuitum; experiment: as above; conditions: Mycolicibacterium fortuitum, MH Culture Medium, read-out: Minimum Inhibitory Concentration (MIC)
[10] = tested on: Mycodacterium chelonei; experiment: as above; conditions: MH Culture Medium; Chelonei (standard strain); read-out: Minimum Inhibitory Concentration (MIC)
[11] = 7H9 Broth, Mycobacterium avium Smooth
[12] = MH Broth, Mycobacterium avium Smooth
[13] = MH Culture Medium, Avium (standard strain)
[14] = MH Culture Medium, clinically isolated strain Avium (S31)
[15] = MH Culture Medium, clinically isolated strain Avium (S123)
[16] = MH Culture Medium, clinically isolated strain Avium (S559)
[17] = MH Culture Medium, clinically isolated strain Avium (S568)
[18] = MH Culture Medium, clinically isolated strain Avium (S577)
[19] = MH Culture Medium, clinically isolated strain Avium (S597)
[20] = MH Culture Medium, clinically isolated strain Avium (S602)
[21] = MH Culture Medium, Kansasii (standard strain)
[22] = MH Culture Medium, clinically isolated strain Kansasii (S9)
[23] = MH Culture Medium, clinically isolated strain Kansasii (S199)
[24] = MH Culture Medium, clinically isolated strain Kansasii (S520)
[25] = MH Culture Medium, clinically isolated strain Kansasii (S609)
[26] = 7H9 Culture Medium, Mycobacterium avium Smooth
[27] = MH Culture Medium, Mycobacterium avium Smooth
[28] = Intracellulare (standard strain)
[29] = clinically isolated strain Intracellulare (S90)
[30] = clinically isolated strain Intracellulare (S261)
[31] = clinically isolated strain Intracellulare (S269)
[32] = clinically isolated strain Intracellulare (S290)
[33] = clinically isolated strain Intracellulare (S291)
[34] = clinically isolated strain Intracellulare (S298)
[35] = clinically isolated strain Intracellulare (S541)
[36] = clinically isolated strain Intracellulare (S623)
[37] = clinically isolated strain Intracellulare (ZPS)
[38] = clinically isolated strain intracellulare (S442)
[39] = MH Culture Medium, clinically isolated strain Massiliense (D10)
[40] = MH Culture Medium, clinically isolated strain Massiliense (D14)
[41] = MH Culture Medium, clinically isolated strain Massiliense (D18)
[42] = clinically isolated strain Fortuitum (S103)
[43] = clinically isolated strain Fortuitum (S111)

## Cc1ncc([N+](=O)[O-])n1CCO [Metronidazole, metronidazole]
[1]; [11]
  MIC: > 64 µg/mL
[1]; [12]
  MIC: > 64 µg/mL
[1]; [13]
  MIC: 8 µg/mL (≈ 46.7 µM)
[1]; [14]
  MIC: 16 µg/mL (≈ 93.5 µM)
[1]; [15]
  MIC: 8 µg/mL (≈ 46.7 µM)
[1]; [16]
  MIC: 8 µg/mL (≈ 46.7 µM)
[1]; [17]
  MIC: 8 µg/mL (≈ 46.7 µM)
[1]; [18]
  MIC: 8 µg/mL (≈ 46.7 µM)
[1]; [19]
  MIC: 8 µg/mL (≈ 46.7 µM)
[1]; [20]
  MIC: 32 µg/mL (≈ 187 µM)
[2]; 7H9 Broth
  MIC: > 64 µg/mL
[2]; MH Broth
  MIC: > 64 µg/mL
[3]; 7H9 Broth
  MIC: > 64 µg/mL
[3]; MH Broth
  MIC: > 64 µg/mL
[3]; [21]
  MIC: 8 µg/mL (≈ 46.7 µM)
[3]; [22]
  MIC: 8 µg/mL (≈ 46.7 µM)
[3]; [23]
  MIC: 8 µg/mL (≈ 46.7 µM)
[3]; [24]
  MIC: 8 µg/mL (≈ 46.7 µM)
[3]; [25]
  MIC: 8 µg/mL (≈ 46.7 µM)
[4]; [26]
  MBC: > 64 µg/mL
[4]; [27]
  MBC: > 64 µg/mL
[5]
  Minimum Bactericidal Concentration (MBC): >64 µg/mL
  MBC: > 64 µg/mL
[6]; 7H9 Culture Medium
  MBC: > 64 µg/mL
[6]; MH Culture Medium
  MBC: > 64 µg/mL
[7]; [28]
  MIC: 8 µg/mL (≈ 46.7 µM)
[7]; [29]
  MIC: 16 µg/mL (≈ 93.5 µM)
[7]; [30]
  MIC: 16 µg/mL (≈ 93.5 µM)
[7]; [31]
  MIC: 16 µg/mL (≈ 93.5 µM)
[7]; [32]
  MIC: 8 µg/mL (≈ 46.7 µM)
[7]; [33]
  MIC: 8 µg/mL (≈ 46.7 µM)
[7]; [34]
  MIC: 16 µg/mL (≈ 93.5 µM)
[7]; [35]
  MIC: 16 µg/mL (≈ 93.5 µM)
[7]; [36]
  MIC: 8 µg/mL (≈ 46.7 µM)
[7]; [37]
  MIC: 8 µg/mL (≈ 46.7 µM)
[7]; [38]
  MIC: 8 µg/mL (≈ 46.7 µM)
[8]; [39]
  MIC: 16 µg/mL (≈ 93.5 µM)
[8]; [40]
  MIC: 16 µg/mL (≈ 93.5 µM)
[8]; [41]
  MIC: 8 µg/mL (≈ 46.7 µM)
[9]; Fortuitum (standard strain)
  MIC: 16 µg/mL (≈ 93.5 µM)
[9]; [42]
  MIC: 8 µg/mL (≈ 46.7 µM)
[9]; [43]
  MIC: 16 µg/mL (≈ 93.5 µM)
[10]
  MIC: 16 µg/mL (≈ 93.5 µM)

## CC[C@H]1OC(=O)[C@H](C)[C@@H](O[C@H]2C[C@@](C)(OC)[C@@H](O)[C@H](C)O2)[C@H](C)[C@@H](O[C@@H]2O[C@H](C)C[C@H](N(C)C)[C@H]2O)[C@](C)(OC)C[C@@H](C)C(=O)[C@H](C)[C@@H](O)[C@]1(C)O [Clarithromycin]
[1]; 7H9 Broth, Mycobacterium avium Rough
  MIC: > 64 µg/mL
[1]; [11]
  MIC: 32 µg/mL (≈ 42.8 µM)
[1]; MH Broth, Mycobacterium avium Rough
  MIC: > 64 µg/mL
[1]; [12]
  MIC: > 64 µg/mL
[1]; [13]
  MIC: 0.0625 µg/mL (≈ 0.0836 µM)
[1]; [14]
  MIC: 0.125 µg/mL (≈ 0.167 µM)
[1]; [15]
  MIC: 0.5 µg/mL (≈ 0.668 µM)
[1]; [16]
  MIC: 0.25 µg/mL (≈ 0.334 µM)
[1]; [17]
  MIC: 4 µg/mL (≈ 5.35 µM)
[1]; [18]
  MIC: 0.25 µg/mL (≈ 0.334 µM)
[1]; [19]
  MIC: 1 µg/mL (≈ 1.34 µM)
[1]; [20]
  MIC: 1 µg/mL (≈ 1.34 µM)
[2]; 7H9 Broth
  MIC: 16 µg/mL (≈ 21.4 µM)
[2]; MH Broth
  MIC: 64 µg/mL (≈ 85.6 µM)
[3]; 7H9 Broth
  MIC: 2 µg/mL (≈ 2.67 µM)
[3]; MH Broth
  MIC: 2 µg/mL (≈ 2.67 µM)
[3]; [21]
  MIC: 0.0625 µg/mL (≈ 0.0836 µM)
[3]; [22]
  MIC: 0.125 µg/mL (≈ 0.167 µM)
[3]; [23]
  MIC: 0.0625 µg/mL (≈ 0.0836 µM)
[3]; [24]
  MIC: 0.0625 µg/mL (≈ 0.0836 µM)
[3]; [25]
  MIC: 0.125 µg/mL (≈ 0.167 µM)
[4]; 7H9 Culture Medium, Mycobacterium avium Rough
  MBC: > 64 µg/mL
[4]; [26]
  MBC: > 64 µg/mL
[4]; MH Culture Medium, Mycobacterium avium Rough
  MBC: > 64 µg/mL
[4]; [27]
  MBC: > 64 µg/mL
[5]
  Minimum Bactericidal Concentration (MBC): >64 µg/mL
  MBC: > 64 µg/mL
[6]; 7H9 Culture Medium
  MBC: 64 µg/mL (≈ 85.6 µM)
[6]; MH Culture Medium
  MBC: > 64 µg/mL
[7]; [28]
  MIC: 0.0625 µg/mL (≈ 0.0836 µM)
[7]; [29]
  MIC: 1 µg/mL (≈ 1.34 µM)
[7]; [30]
  MIC: 1 µg/mL (≈ 1.34 µM)
[7]; [31]
  MIC: 1 µg/mL (≈ 1.34 µM)
[7]; [32]
  MIC: 1 µg/mL (≈ 1.34 µM)
[7]; [33]
  MIC: 1 µg/mL (≈ 1.34 µM)
[7]; [34]
  MIC: 2 µg/mL (≈ 2.67 µM)
[7]; [35]
  MIC: 64 µg/mL (≈ 85.6 µM)
[7]; [36]
  MIC: 4 µg/mL (≈ 5.35 µM)
[7]; [37]
  MIC: 1 µg/mL (≈ 1.34 µM)
[7]; [38]
  MIC: 2 µg/mL (≈ 2.67 µM)
[8]; [41]
  Minimum Inhibitory Concentration (MIC): 0.0625 µg/mL
[8]; [39]
  MIC: 0.25 µg/mL (≈ 0.334 µM)
[8]
  MIC: 0.0625 µg/mL (≈ 0.0836 µM)
[9]; Fortuitum (standard strain)
  MIC: 32 µg/mL (≈ 42.8 µM)
[9]; [42]
  MIC: > 64 µg/mL
[9]; [43]
  MIC: 2 µg/mL (≈ 2.67 µM)
[10]
  MIC: 0.5 µg/mL (≈ 0.668 µM)

## COc1c(N2C[C@@H]3CCCN[C@@H]3C2)c(F)cc2c(=O)c(C(=O)O)cn(C3CC3)c12 [Moxifloxacin, moxifloxacin]
[1]; [13]
  MIC: 1 µg/mL (≈ 2.49 µM)
[1]; [14]
  MIC: 8 µg/mL (≈ 19.9 µM)
[1]; [15]
  MIC: 0.5 µg/mL (≈ 1.25 µM)
[1]; [16]
  MIC: 1 µg/mL (≈ 2.49 µM)
[1]; [17]
  MIC: 0.5 µg/mL (≈ 1.25 µM)
[1]; [18]
  MIC: 0.5 µg/mL (≈ 1.25 µM)
[1]; [19]
  MIC: 2 µg/mL (≈ 4.98 µM)
[1]; [20]
  MIC: 4 µg/mL (≈ 9.96 µM)
[3]; [21]
  MIC: 0.0625 µg/mL (≈ 0.156 µM)
[3]; [22]
  MIC: 0.0625 µg/mL (≈ 0.156 µM)
[3]; [23]
  MIC: 0.0625 µg/mL (≈ 0.156 µM)
[3]; [24]
  MIC: 0.0625 µg/mL (≈ 0.156 µM)
[3]; [25]
  MIC: 0.0625 µg/mL (≈ 0.156 µM)
[7]; [28]
  MIC: 0.25 µg/mL (≈ 0.623 µM)
[7]; [29]
  MIC: 2 µg/mL (≈ 4.98 µM)
[7]; [30]
  MIC: 2 µg/mL (≈ 4.98 µM)
[7]; [31]
  MIC: 2 µg/mL (≈ 4.98 µM)
[7]; [32]
  MIC: 2 µg/mL (≈ 4.98 µM)
[7]; [33]
  MIC: 1 µg/mL (≈ 2.49 µM)
[7]; [34]
  MIC: 2 µg/mL (≈ 4.98 µM)
[7]; [35]
  MIC: 64 µg/mL (≈ 159 µM)
[7]; [36]
  MIC: 2 µg/mL (≈ 4.98 µM)
[7]; [37]
  MIC: 1 µg/mL (≈ 2.49 µM)
[7]; [38]
  MIC: 2 µg/mL (≈ 4.98 µM)
[8]; [39]
  MIC: 32 µg/mL (≈ 79.7 µM)
[8]; [40]
  MIC: 32 µg/mL (≈ 79.7 µM)
[8]; [41]
  MIC: 8 µg/mL (≈ 19.9 µM)
[9]; Fortuitum (standard strain)
  MIC: 1 µg/mL (≈ 2.49 µM)
[9]; [42]
  MIC: 1 µg/mL (≈ 2.49 µM)
[9]; [43]
  MIC: 0.5 µg/mL (≈ 1.25 µM)
[10]
  MIC: 4 µg/mL (≈ 9.96 µM)

From patent US20200360520A1, “USE OF RIFAMYCIN-QUINOLIZIDONE COUPLING MOLECULE” (priority 2019, published 2020)
